# Measured values from patent US20170027172A1, “USE OF SUBSTITUTE OXO TETRAHYDROQUINOLINE SULFONAMIDES OR SALTS THEREOF FOR RAISING STRESS TOLERANCE OF PLANTS” (BAYER CROPSCIENCE AKTIENGESELLSCHAFT, priority 2014, published 2017).
# Target: T1, phosphatase ABI1 via the co-regulator RCAR11/PYR1 (Arabidopsis thaliana, UniProt O49686+P49597)
# T1 sequence (O49686 1-191): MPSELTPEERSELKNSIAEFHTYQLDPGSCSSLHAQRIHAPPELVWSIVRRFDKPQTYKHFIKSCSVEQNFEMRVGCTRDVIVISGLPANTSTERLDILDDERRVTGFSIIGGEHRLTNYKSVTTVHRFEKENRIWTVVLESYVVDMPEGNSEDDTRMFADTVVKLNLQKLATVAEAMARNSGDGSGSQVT
# T1 sequence (P49597 1-434): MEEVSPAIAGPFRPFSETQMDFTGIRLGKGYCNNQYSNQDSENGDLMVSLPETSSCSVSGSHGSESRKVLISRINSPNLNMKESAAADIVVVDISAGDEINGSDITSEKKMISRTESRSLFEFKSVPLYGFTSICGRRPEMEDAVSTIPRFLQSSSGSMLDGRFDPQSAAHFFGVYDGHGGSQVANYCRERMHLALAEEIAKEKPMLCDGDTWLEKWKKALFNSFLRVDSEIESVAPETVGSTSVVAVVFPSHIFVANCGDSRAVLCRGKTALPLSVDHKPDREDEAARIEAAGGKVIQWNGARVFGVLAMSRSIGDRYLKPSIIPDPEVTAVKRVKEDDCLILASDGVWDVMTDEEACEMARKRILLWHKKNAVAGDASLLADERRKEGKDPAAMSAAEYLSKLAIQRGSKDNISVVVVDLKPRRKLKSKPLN
# Assay: In vitro inhibition of the phosphatase ABI1 via the co-regulator RCAR11/PYR1, MUP dephosphorylation
# Assay type: biochemical
# Design: dose or concentration left out as unconfirmed
# Details: in a solution of DMSO and water; fluorescence at 460 nm
# Text: Effects of the phytohormone abscisic acid (ABA) on the behavior of plants under abiotic stress and the mechanism of action of ABA are described in the literature (cf. Abrams et al., WO97/23441, Park et al. Science, 2009, 324, 1068; Grill et al. Science, 2009, 324, 1064; Tanokura et al. Biophysics, 2011, 7, 123; Schroeder et al. Plant J. 2010, 61, 290). Therefore, it is possible with the aid of a suitable in vitro test system to derive a correlation between the action of ABA and the stress response of a plant under abiotic stress. In the event of water deficiency (drought stress), plants form the phytohormone abscisic acid (ABA). This binds, along with a co-regulator (Regulatory Component of ABA-Receptor=RCAR according to Grill et al. Science, 2009, 324, 1064 or PYR/PYL according to Cutler et al. Science, 2009, 324, 1068), to a phosphatase (e.g. ABI1, a type 2C protein phosphatase, also abbreviated to PP2C) and inhibits its activity. As a result, a “downstream” kinase (e.g. SnRK2) is no longer dephosphorylated. This kinase, which is thus active, via phosphorylation of transcription factors (e.g. AREB/ABF, cf. Yoshida et al., 2010, 61, 672), switches on a genetic protection program to increase drought stress tolerance. The assay described hereinafter utilizes the inhibition of the phosphatase ABI1 via the co-regulator RCAR11/PYR1 aus Arabidopsis thaliana. For the determination of activity, the dephosphorylation of 4-methylumbelliferyl phosphate (MUP) was measured at 460 nm. The in vitro assay was conducted in Greiner 384-well PS microplates F-well, using two controls: a) 0.5% dimethyl sulfoxide (DMSO) and b) 5 μM abscisic acid (ABA). The assay described here was generally conducted with substance concentrations of the appropriate chemical test substances in a concentration range of 0.1 μM to 100 μM in a solution of DMSO and water. The substance solution thus obtained, if necessary, was stirred with esterase from porcine liver (EC 3.1.1.1) at room temperature for 3 h and centrifuged at 4000 rpm for 30 min. A total volume of 45 μl was introduced into each cavity of the microplate, having the following composition: • 1) 5 μl of substance solution, i.e. a) DMSO 5% or b) abscisic acid solution or c) the corresponding example compound of the general formula (I) dissolved in 5% DMSO. • 2) 20 μl of enzyme buffer mix, composed of a) 40% by vol. of enzyme buffer (10 mL contain equal proportions by volume of 500 mM Tris-HCl pH 8, 500 mM NaCl, 3.33 mM MnCl2, 40 mM dithiothreitol (DTT)), b) 4% by vol. of ABI1 dilution (protein stock solution was diluted so as to give, after addition, a final concentration in the assay of 0.15 μg ABI1/well), c) 4% by vol. of RCAR11 dilution (enzyme stock was diluted so as to give, on addition of the dilution to the enzyme buffer mix, a final concentration in the assay of 0.30 μg enzyme/well), d) 5% by vol. of Tween20 (1%), e) 47% by vol. H2O bi-dist. • 3) 20 μl of substrate mix, composed of a) 10% by vol. of 500 mM Tris-HCl pH8, b) 10% by vol. of 500 mM NaCl, c) 10% by vol. of 3.33 mM MnCl2, d) 5% by vol. of 25 mM MUP, 5% by vol. of Tween20 (1%), 60% by vol. of H2O bi-dist.
# Enzyme buffer mix and substrate mix were made up 5 minutes prior to the addition and warmed to a temperature of 35° C. On completion of pipetting of all the solutions and on completion of mixing, the plate was incubated at 35° C. for 20 minutes. Finally, a relative fluorescence measurement was made at 35° C. with a BMG Labtech “POLARstar Optima” microplate reader using a 340/10 nm excitation filter and a 460 nm emission filter. The efficacy of the compounds of the general formula (I) is reported in the table which follows using abscisic acid […] as comparative substance (No. 37) according to the following classification: ++++ (inhibition≧90%), +++ (90%>inhibition≧70%), ++ (70%>inhibition≧50%), + (50%>inhibition≧30%). […]
row,SMILES,ABI1 inhibition
1,O=C1CCc2cc(NS(=O)(=O)Cc3ccc(F)cc3)ccc2N1CC1CC1(Cl)Cl (racemic) [A32-158],+ (50%>inhibition≧30%)
2,O=C1CCc2cc(NS(=O)(=O)Cc3ccc(Cl)cc3)ccc2N1CC1CC1(Cl)Cl (racemic) [A32-165],++ (70%>inhibition≧50%)
3,Cc1ccc(CS(=O)(=O)Nc2ccc3c(c2)CCC(=O)N3CC(F)F)cc1 [A1-152],++++ (inhibition≧90%)
4,O=C1CCc2cc(NS(=O)(=O)Cc3ccc(Cl)cc3)ccc2N1CC(F)F [A1-165],++++ (inhibition≧90%)
5,O=C1CCc2cc(NS(=O)(=O)Cc3cccc(Cl)c3)ccc2N1CC(F)F [A1-166],++ (70%>inhibition≧50%)
6,O=C1CCc2cc(NS(=O)(=O)Cc3ccc(Br)cc3)ccc2N1CC(F)F [A1-172],++++ (inhibition≧90%)
7,O=C1CCc2cc(NS(=O)(=O)Cc3cccc(Br)c3)ccc2N1CC(F)F [A1-173],++ (70%>inhibition≧50%)
8,O=C1CCc2cc(NS(=O)(=O)Cc3ccc([N+](=O)[O-])cc3)ccc2N1CC(F)F [A1-175],+++ (90%>inhibition≧70%)
9,O=C1CCc2cc(NS(=O)(=O)Cc3ccc(C(F)(F)F)cc3)ccc2N1CC(F)F [A1-178],++++ (inhibition≧90%)
10,N#Cc1ccc(CS(=O)(=O)Nc2ccc3c(c2)CCC(=O)N3CC(F)F)cc1 [A1-181],++++ (inhibition≧90%)
11,O=C1CCc2cc(NS(=O)(=O)Cc3ccccc3)ccc2N1CC(F)(F)F [A2-151],++++ (inhibition≧90%)
12,Cc1ccc(CS(=O)(=O)Nc2ccc3c(c2)CCC(=O)N3CC(F)(F)F)cc1 [A2-152],++++ (inhibition≧90%)
13,Cc1cccc(CS(=O)(=O)Nc2ccc3c(c2)CCC(=O)N3CC(F)(F)F)c1 [A2-153],+++ (90%>inhibition≧70%)
14,O=C1CCc2cc(NS(=O)(=O)Cc3ccc(F)cc3)ccc2N1CC(F)(F)F [A2-158],++++ (inhibition≧90%)
15,O=C1CCc2cc(NS(=O)(=O)Cc3ccc(Cl)cc3)ccc2N1CC(F)(F)F [A2-165],++++ (inhibition≧90%)
16,O=C1CCc2cc(NS(=O)(=O)Cc3cccc(Cl)c3)ccc2N1CC(F)(F)F [A2-166],+++ (90%>inhibition≧70%)
17,O=C1CCc2cc(NS(=O)(=O)Cc3ccccc3Cl)ccc2N1CC(F)(F)F [A2-168],++ (70%>inhibition≧50%)
18,O=C1CCc2cc(NS(=O)(=O)Cc3ccc(Br)cc3)ccc2N1CC(F)(F)F [A2-172],++++ (inhibition≧90%)
19,O=C1CCc2cc(NS(=O)(=O)Cc3cccc(Br)c3)ccc2N1CC(F)(F)F [A2-173],+++ (90%>inhibition≧70%)
20,O=C1CCc2cc(NS(=O)(=O)Cc3ccc([N+](=O)[O-])cc3)ccc2N1CC(F)(F)F [A2-175],++++ (inhibition≧90%)
21,O=C1CCc2cc(NS(=O)(=O)Cc3cccc([N+](=O)[O-])c3)ccc2N1CC(F)(F)F [A2-176],+++ (90%>inhibition≧70%)

row,SMILES,ABI1 inhibition
1,O=C1CCc2cc(NS(=O)(=O)Cc3ccccc3[N+](=O)[O-])ccc2N1CC(F)(F)F [A2-177],+++ (90%>inhibition≧70%)
2,O=C1CCc2cc(NS(=O)(=O)Cc3ccc(C(F)(F)F)cc3)ccc2N1CC(F)(F)F [A2-178],++++ (inhibition≧90%)
3,O=C1CCc2cc(NS(=O)(=O)Cc3cccc(C(F)(F)F)c3)ccc2N1CC(F)(F)F [A2-179],+++ (90%>inhibition≧70%)
4,N#Cc1ccc(CS(=O)(=O)Nc2ccc3c(c2)CCC(=O)N3CC(F)(F)F)cc1 [A2-181],++++ (inhibition≧90%)
5,Cc1ccc(CS(=O)(=O)Nc2ccc3c(c2)CCC(=O)N3CCC(F)(F)F)cc1 [A7-152],++++ (inhibition≧90%)
6,O=C1CCc2cc(NS(=O)(=O)Cc3ccc(Cl)cc3)ccc2N1CCC(F)(F)F [A7-165],++++ (inhibition≧90%)
7,N#Cc1ccc(CS(=O)(=O)Nc2ccc3c(c2)CCC(=O)N3CCC(F)(F)F)cc1 [A7-181],++++ (inhibition≧90%)
8,N#Cc1cccc(CS(=O)(=O)Nc2ccc3c(c2)CCC(=O)N3CCC(F)(F)F)c1 [A7-182],++ (70%>inhibition≧50%)
9,Cc1ccc(CS(=O)(=O)Nc2ccc3c(c2)CCC(=O)N3CC(F)(F)C(F)(F)F)cc1 [A10-152],++++ (inhibition≧90%)
10,O=C1CCc2cc(NS(=O)(=O)Cc3ccc(Cl)cc3)ccc2N1CC(F)(F)C(F)(F)F [A10-165],++++ (inhibition≧90%)
11,N#Cc1ccc(CS(=O)(=O)Nc2ccc3c(c2)CCC(=O)N3CC(F)(F)C(F)(F)F)cc1 [A10-181],++++ (inhibition≧90%)
12,Cc1ccc(CS(=O)(=O)Nc2ccc3c(c2)CCC(=O)N3CC#N)cc1 [A16-152],++ (70%>inhibition≧50%)
13,N#CCN1C(=O)CCc2cc(NS(=O)(=O)Cc3ccc(C(F)(F)F)cc3)ccc21 [A16-178],++ (70%>inhibition≧50%)
14,"Cc1cccc(CS(=O)(=O)Nc2ccc3c(c2)CCC(=O)N3CC2CC2)c1 [A19-153, N-[1-(Cyclopropylmethyl)-2-oxo-1,2,3,4-tetrahydroquinolin-6-yl]-1-(3-methylphenyl)methanesulfonamide]",+++ (90%>inhibition≧70%)
15,O=C1CCc2cc(NS(=O)(=O)Cc3ccc(Cl)cc3)ccc2N1CC1CC1 [A19-165],++++ (inhibition≧90%)
16,O=C1CCc2cc(NS(=O)(=O)Cc3ccc([N+](=O)[O-])cc3)ccc2N1CC1CC1 [A19-175],++++ (inhibition≧90%)
17,"CCc1ccc(CS(=O)(=O)Nc2ccc3c(c2)CCC(=O)N3CC2CC2)cc1 [A19-325, N-[1-(Cyclopropylmethyl)-2-oxo-1,2,3,4-tetrahydroquinolin-6-yl]-1-(4-ethylphenyl)methanesulfonamide]",++++ (inhibition≧90%)
18,CC(C)(C)c1ccc(CS(=O)(=O)Nc2ccc3c(c2)CCC(=O)N3CC2CC2)cc1 [A19-332],++++ (inhibition≧90%)
19,CCc1ccc(S(=O)(=O)Nc2ccc3c(c2)CCC(=O)N3CC2CC2)cc1 [A19-601],+++ (90%>inhibition≧70%)
20,Cc1ccc(CS(=O)(=O)Nc2ccc3c(c2)CCC(=O)N3CC2CCC2)cc1 [A21-152],++++ (inhibition≧90%)
21,O=C1CCc2cc(NS(=O)(=O)Cc3ccc(F)cc3)ccc2N1CC1CCC1 [A21-158],++++ (inhibition≧90%)
